Laboratory results published in patent US12331051B2 (priority 2021, dated 2025).

Key:
hERG channel = molecular target: T1, hERG channel (Homo sapiens, UniProt Q12809); assay: Cell-based hERG antagonist assay, CHO-K1 cells, tail current
T1 construct: expressed in transfected cells; host or cells: CHO-K1
Experimental: The human […] (hERG) channel, is a potassium channel whose inhibition is related to cardiac arrhythmias (Abbott et al., Cell, 1999, V97(2); p175-187). The effect of the “E559 polymorph” on the hERG channel was performed in a cell-based hERG antagonist assay. In brief, CHO-K1 cells were stably transfected with human hERG cDNA and allowed to achieve whole cell configuration in culture. Cells were held at −80 mV and a 500 ms pulse to −40 mV is delivered to measure the leaking current, which is subtracted from the tail current on-line. Then the cell is depolarized to +40 mV for 500 ms and then to −80 mV over a 100 ms ramp to elicit the hERG tail current. This paradigm is delivered once every 8 s to monitor the current amplitude. The assay is conducted at room temperature. The “E559 polymorph” is then applied to cells from low to high concentrations (0.0003, 0.003, 0.01, 0.03, 0.1, 0.3, 1, 10, 30, and 100 μM) sequentially for 5 minutes. Astermizole is used at multiple concentrations as a reference compound to calculate the percent inhibition of hERG channel by the “polymorph E559”.

[1] = molecular target: T2, Alpha 2C adrenergic receptor (Homo sapiens, UniProt P18825); assay: Functional assay in HEK-293 cells (cAMP); format: cell-based
T2 construct: expressed in transfected cells; host or cells: HEK-293
T2 sequence (P18825 1-462): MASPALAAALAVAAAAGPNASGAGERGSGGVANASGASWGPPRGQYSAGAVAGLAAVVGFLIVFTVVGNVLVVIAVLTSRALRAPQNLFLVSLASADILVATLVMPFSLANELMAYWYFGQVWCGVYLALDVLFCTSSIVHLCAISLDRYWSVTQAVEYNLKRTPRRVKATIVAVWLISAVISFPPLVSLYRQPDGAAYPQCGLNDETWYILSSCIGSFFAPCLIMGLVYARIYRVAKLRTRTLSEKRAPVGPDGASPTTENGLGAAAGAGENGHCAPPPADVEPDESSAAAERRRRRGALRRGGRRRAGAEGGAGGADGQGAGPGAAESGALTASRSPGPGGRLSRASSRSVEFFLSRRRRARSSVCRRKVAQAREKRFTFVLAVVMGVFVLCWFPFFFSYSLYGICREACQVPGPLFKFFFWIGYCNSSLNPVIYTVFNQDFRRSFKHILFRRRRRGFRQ
Experimental: (§1) Neuro-receptor binding and functional effects of the “E559 polymorph” was examined by analyzing binding affinity [Ki (nM)], functional agonist activity [EC50 (nM)], and functional antagonist activity [IC50 (nM)] against a panel of key receptors in neurophysiological disorders. Binding and functional assays were performed at “E559 polymorph” concentrations of 0.0003, 0.003, 0.01, 0.03, 0.1, 0.3, 1, and 10 μM. In binding assays, cell membrane homogenates, expressing each receptor target, were incubated with the corresponding radio-ligand in absence or presence of several concentration of the “E559 polymorph” compound. The measurement of binding affinity of the “E559 polymorph” is represented in TABLE XIII by Ki (nM) which was calculated as percent inhibition of the binding of a radioactively labeled reference ligand at each receptor. In functional assays the HEK-293 cells expressing each receptor target were suspended in buffer and distribute in microplates and incubated for 30 minutes at room temperature or 37° C. in the presence of buffer alone (basal control), the reference agonist or antagonist, or the “E559 polymorph. Following incubation, the cells were lysed and the appropriate fluorescent probe (Ca2+ flux, cAMP, or IP1) were added for 60 minutes to measure the fluorescence transfer at the appropriate wavelength using a microplate reader. The cellular agonist effect (EC50) was calculated as a percent of control response to a known reference agonist and the cellular antagonist effect (IC50) was calculated as a percent inhibition of control reference agonist response for each receptor.

[2] = molecular target: T3, Alpha 2B adrenergic receptor (Homo sapiens, UniProt P18089); assay: Functional assay in HEK-293 cells (cAMP); format: cell-based
T3 construct: expressed in transfected cells; host or cells: HEK-293
T3 sequence (P18089 1-450): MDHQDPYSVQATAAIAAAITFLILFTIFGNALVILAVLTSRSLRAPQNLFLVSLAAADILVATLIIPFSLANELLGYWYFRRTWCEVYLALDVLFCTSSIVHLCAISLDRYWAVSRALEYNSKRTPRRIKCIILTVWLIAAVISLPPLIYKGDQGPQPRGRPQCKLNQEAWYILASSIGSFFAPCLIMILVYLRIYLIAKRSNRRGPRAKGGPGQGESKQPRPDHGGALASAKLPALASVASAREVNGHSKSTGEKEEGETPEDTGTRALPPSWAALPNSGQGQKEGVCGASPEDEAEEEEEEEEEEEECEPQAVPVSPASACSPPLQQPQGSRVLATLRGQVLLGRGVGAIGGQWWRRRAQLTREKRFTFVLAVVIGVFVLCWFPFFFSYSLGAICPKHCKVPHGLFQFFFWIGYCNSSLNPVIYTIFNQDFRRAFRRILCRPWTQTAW
Experimental: as §1

[3] = molecular target: T4, Serotonin 7 receptor (5-HT7R) (Homo sapiens, UniProt P34969); assay: Functional assay in HEK-293 cells (cAMP); format: cell-based
T4 construct: expressed in transfected cells; host or cells: HEK-293
Experimental: as §1

[4] = molecular target: T5, Beta 2 adrenergic receptor (Homo sapiens, UniProt P07550); assay: Functional assay in HEK-293 cells (cAMP); format: cell-based
T5 construct: expressed in transfected cells; host or cells: HEK-293
Experimental: as §1

5-HT1F = molecular target: T6, 5-HT1F (Homo sapiens, UniProt P30939); assay: Functional assay (cAMP); format: cell-based
T6 construct: expressed in transfected cells; host or cells: HEK-293
T6 sequence (P30939 1-366): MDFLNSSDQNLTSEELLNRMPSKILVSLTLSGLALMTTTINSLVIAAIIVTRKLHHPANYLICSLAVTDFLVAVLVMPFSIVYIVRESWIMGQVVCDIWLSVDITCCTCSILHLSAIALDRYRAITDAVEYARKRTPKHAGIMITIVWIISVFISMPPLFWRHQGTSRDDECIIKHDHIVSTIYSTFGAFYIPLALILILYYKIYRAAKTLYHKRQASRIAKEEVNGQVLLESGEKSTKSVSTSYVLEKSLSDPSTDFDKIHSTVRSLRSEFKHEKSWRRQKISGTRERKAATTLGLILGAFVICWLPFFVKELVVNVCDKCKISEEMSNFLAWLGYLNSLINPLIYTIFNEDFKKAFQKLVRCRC
Experimental: as §1
The functional agonist activity [EC50 (nM), Emax], and functional antagonist activity [IC50 (nM)] of the 5R:8S stereoisomer of the “E559 polymorph” (5R:8S E558) was compared with the “E559 polymorph” (a 5R:8R stereoisomer) at selected serotonin receptors. The assays were performed as described in Example 6.

[5] = molecular target: ADRa2A (α2A adrenergic receptor) (Homo sapiens, UniProt P08913); assay: BRET-based G protein dissociation assay; format: cell-based
Sequence of ADRa2A (α2A adrenergic receptor) (P08913 whole entry): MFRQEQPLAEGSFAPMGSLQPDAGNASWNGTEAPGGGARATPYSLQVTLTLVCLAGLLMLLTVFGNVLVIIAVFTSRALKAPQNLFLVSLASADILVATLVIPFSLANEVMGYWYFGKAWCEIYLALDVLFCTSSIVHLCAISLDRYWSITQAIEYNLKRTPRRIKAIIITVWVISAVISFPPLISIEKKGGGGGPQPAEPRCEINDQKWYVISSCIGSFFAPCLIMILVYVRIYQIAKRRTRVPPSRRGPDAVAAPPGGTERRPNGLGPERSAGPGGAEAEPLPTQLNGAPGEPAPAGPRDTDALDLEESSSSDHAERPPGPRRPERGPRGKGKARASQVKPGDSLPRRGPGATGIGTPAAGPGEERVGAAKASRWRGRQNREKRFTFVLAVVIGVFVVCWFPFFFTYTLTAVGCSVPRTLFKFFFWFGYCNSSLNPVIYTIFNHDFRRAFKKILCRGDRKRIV

T4 sequence (P34969 whole entry): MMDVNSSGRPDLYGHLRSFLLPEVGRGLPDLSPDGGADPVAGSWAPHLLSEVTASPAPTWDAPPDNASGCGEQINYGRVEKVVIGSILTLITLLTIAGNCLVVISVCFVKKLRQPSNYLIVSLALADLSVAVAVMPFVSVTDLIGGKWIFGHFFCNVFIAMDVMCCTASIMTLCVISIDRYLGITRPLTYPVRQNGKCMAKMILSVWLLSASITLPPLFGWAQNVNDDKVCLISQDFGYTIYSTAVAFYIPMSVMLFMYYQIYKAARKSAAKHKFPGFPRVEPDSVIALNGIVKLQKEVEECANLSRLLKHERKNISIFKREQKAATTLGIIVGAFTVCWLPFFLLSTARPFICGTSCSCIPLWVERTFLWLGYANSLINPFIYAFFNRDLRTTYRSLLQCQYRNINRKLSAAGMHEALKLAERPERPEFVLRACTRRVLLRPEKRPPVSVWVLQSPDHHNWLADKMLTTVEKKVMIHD
T5 sequence (P07550 whole entry): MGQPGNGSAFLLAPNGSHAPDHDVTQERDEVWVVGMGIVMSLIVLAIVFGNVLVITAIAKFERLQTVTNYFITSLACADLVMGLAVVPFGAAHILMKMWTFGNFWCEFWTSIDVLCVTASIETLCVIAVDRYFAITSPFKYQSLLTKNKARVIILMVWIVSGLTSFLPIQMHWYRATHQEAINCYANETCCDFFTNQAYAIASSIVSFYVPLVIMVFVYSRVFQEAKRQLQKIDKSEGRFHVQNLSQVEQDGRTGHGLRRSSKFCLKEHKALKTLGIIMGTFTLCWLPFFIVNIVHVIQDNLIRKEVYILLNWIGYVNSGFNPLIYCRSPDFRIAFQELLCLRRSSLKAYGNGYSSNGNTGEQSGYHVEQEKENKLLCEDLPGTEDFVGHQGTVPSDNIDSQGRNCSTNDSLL
T1 sequence (Q12809 whole entry): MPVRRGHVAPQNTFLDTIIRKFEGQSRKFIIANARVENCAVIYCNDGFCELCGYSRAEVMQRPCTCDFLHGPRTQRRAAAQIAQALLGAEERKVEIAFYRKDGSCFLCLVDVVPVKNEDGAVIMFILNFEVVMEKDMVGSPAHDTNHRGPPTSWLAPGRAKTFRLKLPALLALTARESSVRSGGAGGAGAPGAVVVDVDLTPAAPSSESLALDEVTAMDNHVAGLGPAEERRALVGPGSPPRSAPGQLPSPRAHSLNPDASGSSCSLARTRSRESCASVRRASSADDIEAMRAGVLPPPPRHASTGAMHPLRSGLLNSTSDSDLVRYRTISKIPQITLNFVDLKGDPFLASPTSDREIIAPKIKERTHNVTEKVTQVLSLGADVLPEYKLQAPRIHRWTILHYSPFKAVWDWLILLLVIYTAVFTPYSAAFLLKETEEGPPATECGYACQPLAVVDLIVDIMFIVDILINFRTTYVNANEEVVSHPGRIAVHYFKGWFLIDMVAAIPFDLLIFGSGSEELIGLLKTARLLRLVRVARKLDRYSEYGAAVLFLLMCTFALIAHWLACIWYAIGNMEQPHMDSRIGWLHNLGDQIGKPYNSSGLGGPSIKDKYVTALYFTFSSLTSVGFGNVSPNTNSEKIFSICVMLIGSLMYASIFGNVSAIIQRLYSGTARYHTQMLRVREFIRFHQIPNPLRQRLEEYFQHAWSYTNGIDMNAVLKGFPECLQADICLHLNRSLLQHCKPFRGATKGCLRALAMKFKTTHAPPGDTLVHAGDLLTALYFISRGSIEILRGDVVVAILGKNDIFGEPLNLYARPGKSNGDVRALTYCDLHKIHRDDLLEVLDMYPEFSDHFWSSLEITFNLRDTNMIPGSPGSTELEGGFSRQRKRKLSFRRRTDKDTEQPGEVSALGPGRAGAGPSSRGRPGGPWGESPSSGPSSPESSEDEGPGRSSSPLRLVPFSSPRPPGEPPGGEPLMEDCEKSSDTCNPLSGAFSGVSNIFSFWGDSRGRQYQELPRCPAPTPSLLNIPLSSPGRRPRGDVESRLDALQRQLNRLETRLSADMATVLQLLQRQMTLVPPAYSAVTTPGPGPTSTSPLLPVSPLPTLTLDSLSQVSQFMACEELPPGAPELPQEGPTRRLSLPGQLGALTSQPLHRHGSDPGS

In the case of `CCN(CC)C(=O)[C@@H]1C=C2c3cccc4[nH]c(Br)c(c34)C[C@H]2N(C)C1` [E559, (5R, 8R)-2-Bromo-9,10-didehydro-N,N-diethyl-6-methylergoline-8-carboxamide hemi-D-tartrate], the EC50 (hERG channel) is reported as 31600 nM, the EC50 [1] is reported as 730 nM and the IC50 [1] is reported as over 10000 nM. For the same compound, the EC50 [2] was over 10000 nM, the IC50 [2] was 3600 nM and the EC50 [3] was over 10000 nM. For the same compound, the IC50 [3] was 240 nM, the EC50 [4] was over 10000 nM and the IC50 [4] was 360 nM. The EC50 (5-HT1F) was 13.8 nM, the Emax (5-HT1F; cAMP, ligand 5-HT, read-out: Functional Assay (agonist) Emax) was 92.6% and the EC50 [5] was 282 nM. It also gave a Kb [5] of 11.9 nM.
